# Laboratory results: ChEMBL document CHEMBL4346723, “Targeting tropomyosin receptor kinase for cancer therapy” (Eur J Med Chem, 2019)
# Experiments:
# Aurora kinase A = biological target: T1, Aurora kinase A (Homo sapiens, UniProt O14965); test: Inhibition of aurora A (unknown origin)
# T1 sequence (O14965 whole entry): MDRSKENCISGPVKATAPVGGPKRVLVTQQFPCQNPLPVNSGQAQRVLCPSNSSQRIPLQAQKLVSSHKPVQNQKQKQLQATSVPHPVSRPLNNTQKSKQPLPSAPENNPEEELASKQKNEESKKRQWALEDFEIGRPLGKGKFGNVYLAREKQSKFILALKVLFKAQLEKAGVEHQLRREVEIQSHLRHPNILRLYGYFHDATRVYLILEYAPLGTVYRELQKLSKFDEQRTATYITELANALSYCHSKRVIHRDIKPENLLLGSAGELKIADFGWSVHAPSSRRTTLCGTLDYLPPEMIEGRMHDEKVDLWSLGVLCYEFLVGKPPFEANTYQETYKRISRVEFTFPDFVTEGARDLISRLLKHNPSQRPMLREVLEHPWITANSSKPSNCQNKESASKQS
# [1] = biological target: RAF proto-oncogene serine/threonine-protein kinase (Homo sapiens, UniProt P04049); test: Inhibition of c-RAF (unknown origin)
# BXPC-3 = test: Antiproliferative activity against human BxPC3 cells at 10 uM incubated for 48 hrs by MTT assay relative to control; type: functional
# PANC-1 = test: Antiproliferative activity against human PANC1 cells at 10 uM incubated for 48 hrs by MTT assay relative to control; type: functional
# MIA PaCa-2 = test: Antiproliferative activity against human MIAPaCa2 cells at 10 uM incubated for 48 hrs by MTT assay relative to control; type: functional
# Sequence of RAF proto-oncogene serine/threonine-protein kinase (P04049 whole entry): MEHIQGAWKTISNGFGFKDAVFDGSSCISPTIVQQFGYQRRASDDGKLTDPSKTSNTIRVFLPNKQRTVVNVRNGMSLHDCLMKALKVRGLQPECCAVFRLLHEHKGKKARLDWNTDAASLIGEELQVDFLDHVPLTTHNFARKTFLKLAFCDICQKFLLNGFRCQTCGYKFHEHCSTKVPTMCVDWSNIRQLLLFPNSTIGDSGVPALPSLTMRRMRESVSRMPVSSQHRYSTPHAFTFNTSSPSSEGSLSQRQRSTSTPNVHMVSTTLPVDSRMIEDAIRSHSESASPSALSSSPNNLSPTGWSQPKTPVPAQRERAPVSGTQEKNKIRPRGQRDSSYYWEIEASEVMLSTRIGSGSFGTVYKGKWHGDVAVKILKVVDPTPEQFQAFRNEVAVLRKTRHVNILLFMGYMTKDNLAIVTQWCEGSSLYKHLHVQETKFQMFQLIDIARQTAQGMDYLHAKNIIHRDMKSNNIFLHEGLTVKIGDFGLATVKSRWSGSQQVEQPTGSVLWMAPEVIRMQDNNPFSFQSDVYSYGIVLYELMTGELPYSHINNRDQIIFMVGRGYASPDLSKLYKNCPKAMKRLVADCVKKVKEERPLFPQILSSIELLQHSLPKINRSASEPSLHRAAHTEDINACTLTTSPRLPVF
SMILES,IC50 (Aurora kinase A),IC50 [1],Activity (BXPC-3),Activity (PANC-1),Activity (MIA PaCa-2)
Cc1cn(-c2cc(C(=O)Nc3cccc(Nc4ccc5c(c4)NC(=O)/C5=C\c4ccc[nH]4)c3)cc(C(F)(F)F)c2)cn1,15 nM,116 nM,,,
CN(C)S(=O)(=O)c1cc(-c2cnc3[nH]cc(-c4ccncc4)c3c2)cnc1N,,,<20%,30%,<20%
